According to patent publication US8507506B2, “Theophylline derivative inhibits osteoporosis” (Kaohsiung Medical University, priority 2011, dated 2013):
Marks after values point to notes of the source that are not given here.

Key:
Format in all cases: cell-based
[1] = test system: MMP-2 enzyme activity of RAW264.7 cells; experiment: Gelatin zymography, enzyme activity of MMP-2 induced by RANKL; settings: 10 μM, RANKL 24 hours, FIG. 20
Experimental: KMUP-1 influences there major up-stream signal transduction pathways which are related to RANK/RANKL. Western blot is used to estimate the amount of matrix metalloproteinase (MMP)-2 and MMP-9 which are related to the dissolution of osteoclast-like cells, and the enzyme activity of MMP-2 and MMP-9 are estimated via Gelatin Zymography. […] After 24 hours reaction, the reaction fluid was centrifuged (13,000 rpm, 4° C., 20 minutes), and then the supernatant was stored in −80° C. • b) 10% gel preparation. 10 mg gelatin was added by 1 ml ddH2O and then was heated in water bath until the solution was clear. • c) Concentrations of the proteins were examined by Bio-Red DC Protein Assay. After knowing the concentrations, the proteins were diluted to specific concentrations by adding ddH2O. One forth volume of the diluted proteins of sample buffer was added into the diluted proteins. After shaking, the diluted proteins could be added into wells of the gel. Subsequently, 1× running buffer was added with the gel, and then the gel was run at 100 V for 10 minutes until the proteins were driven to the intersection between a loading gel and a running gel. Then, the voltage was swopped to 200 V for 60 minutes. • d) After electrophoresis, the loading gel was discarded, and the left gel was washed by TritonX-100 buffer for 30 minutes in room temperature twice. […]

[2] = test system: IκBα in cytoplasm of RAW264.7 cells; experiment: Western blot, IκBα phosphorylation and hydrolysis induced by RANKL; settings: KMUP-1 in advance 24 hours, RANKL 30 minutes, FIG. 8(A)
Experimental: IκBα which originally binds with NF-κB to inhibit its activity in cytoplasm is stimulated by RANKL to be phosphorylized and be hydrolyzed after separating from NF-κB. Then, the free NF-κB transfers into a cell nucleus to play a role as a transcription factor. According to the experimental result, compared with the control group, in the group induced by RANKL for 30 minutes, the IκBα in the cytoplasm is obviously phosphorylized and hydrolyzed. […] According to the result, KMUP-1 can inhibit NF-κB activation induced by RANKL. Nuclear proteins were extracted according to the instructions of NE-PER kit. 2.5×10^6 cells were plated per well in 24-well plates. […] Subsequently, the cells were added by 5.5 μ[…] and shaken for 5 seconds and then put on ice for 1 minute. After that, the cells were shaken again for 5 seconds and centrifuged (10,000 rpm, 4° C., 5 minutes). Cytoplasm and Nuclei could be separated by this process, and the supernatant was cytoplasmic proteins, and the pallet was nuclei. The supernatant was stored in an eppendorf in -80° C. b) Extraction of Nuclear Proteins The nuclear pallet was added by 500 μl PBS and centrifuged (10,000 rpm, 4° C., 5 minutes), and the supernatant was discarded. The pallet could be washed by this process and prevented contamination. […]

[3] = test system: MMP-9 protein in RAW264.7 cells; experiment: Western blot, amount of MMP-9 protein induced by RANKL; settings: RANKL 24 hours, FIG. 19
Experimental: KMUP-1 influences there major up-stream signal transduction pathways which are related to RANK/RANKL. Western blot is used to estimate the amount of matrix metalloproteinase (MMP)-2 and MMP-9 which are related to the dissolution of osteoclast-like cells, and the enzyme activity of MMP-2 and MMP-9 are estimated via Gelatin Zymography. […] The proteins were collected by scraping and were centrifuged (13,000 rpm, 4° C., 30 minutes). The supernatant was stored in an eppendorf in −80° C. • c) Concentrations of the proteins were examined by Bio-Red DC Protein Assay. After knowing the concentrations, the proteins were diluted to specific concentrations by adding ddH2O. One forth volume of the diluted proteins of sample buffer was added into the diluted proteins and was put in boiled water for 5 min and then was chilled on ice for 5 minutes. After short time centrifugation, the diluted proteins could be injected into wells of a gel. The gel was run at 100 V for 10 minutes until the proteins were driven to the intersection between a loading gel and a running gel. Then, the voltage was swopped to 200 V for 40 minutes. • d) A PVDF membrane was immersed in Methanol for 2 minutes. After two washes in ddH2O, the membrane was immersed in transfer buffer for 15 minutes. A SDS-PAGE was put on the membrane, and wet paper was flanked them. […]

[4] = test system: TRAP mRNA in RAW264.7 cells; experiment: RT-PCR, RANKL-induced mRNA expression of TRAP; settings: for RANKL-induced mRNA expression level of TRAP: RAW264.7 cells, 24 hours, CTL 100%, mean ± SEM
Excerpt: The culture medium was discarded. […] [table] f) Running • A.

Cn1c(=O)c2c(ncn2CCN2CCN(c3ccccc3Cl)CC2)n(C)c1=O [KMUP-1, 7-[2-[4-(2-Chlorophenyl)piperazin-1-yl]ethyl] theophylline]
enzyme activity of MMP-2 induced by RANKL [1]: can reduce the enzyme activity of MMP-2 and MMP-9
phosphorylation and hydrolysis of IκBα in cytoplasm induced by RANKL [2]: can inhibit the effect of RANKL
amount of MMP-9 protein induced by RANKL [3]: can efficiently inhibit the amount of MMP-2 and MMP-9 proteins
effect on mRNA expression of TRAP induced by RANKL (in words) ([4]; 10 ng/ml RANKL, summary of Table 1): inhibits the mRNA expression
RANKL-induced mRNA expression level of TRAP ([4]; RANKL 10 ng/ml + KMUP-1 1 μM): 422.4 ± 24.8%
RANKL-induced mRNA expression level of TRAP ([4]; RANKL 10 ng/ml + KMUP-1 2.5 μM): 427.7 ± 39.3%
RANKL-induced mRNA expression level of TRAP ([4]; RANKL 10 ng/ml + KMUP-1 5 μM): 359.9 ± 20.7% ^b
RANKL-induced mRNA expression level of TRAP ([4]; RANKL 10 ng/ml + KMUP-1 7.5 μM): 293.8 ± 30.1% ^b
RANKL-induced mRNA expression level of TRAP ([4]; RANKL 10 ng/ml + KMUP-1 10 μM): 259.3 ± 18.3% ^b
